Experiments:
[1] = system: Balb/c mice; assay: Arachidonic acid-induced ear swelling; format: in vivo; conditions: 100 μg/mouse IP 30 min before AA; 60 min after AA
Experimental: Experiments were performed using female Balb/c mice weighing 18-23 grams. Saline or 100 μg EX-2 or EX-3 was administered IP, 30 min prior to topical application of arachidonic acid (AA). A 10 μl pipet was used to apply 10 μl AA solution (100 mg/ml ethanol; Calbiochem-Novabiochem; San Diego Calif.) to the inner and outer surfaces of the right ear of each mouse. Ten μl ethanol, alone, was applied to the inner and outer surface of the left ear of each mouse.
Ear thickness was measured with a hand-held spring loaded caliper immediately before and 60 min after AA application. Increase in ear thickness was calculated by subtracting the change observed in the control ear from the change observed in AA-treated ear. The value for each group (saline and control) is the average of the swelling observed in the individual mice in each group. The percent reduction of swelling is based on the swelling observed in the saline control group.

[2] = system: Sprague-Dawley rats; assay: Renal ischemia-reperfusion injury; format: in vivo; conditions: I/R + EX-2 (50 or 500 μg/kg iv, not specified)
Experimental: A. Ischemia-Reperfusion Injury: These experiments were performed to determine if a peptide which has cytokine restraining properties, EX-2, can ameliorate the reperfusion-induced vasoconstriction and reduction in glomerular filtration rate that results from clamping of the renal artery. As a comparison, the NSAID ketorolac was utilized in the same model.
Sprague-Dawley rats (250-300 g) were anesthetized with Inactin® (120 mg/kg). After deep anesthesia was assured, the rats were cannulated in the trachea with polyethylene (PE) tubing (PE 240), jugular vein, femoral artery, bladder (PE 50 for previous 3 cannulations), and left ureter (stretched PE 50). Once cannulation was completed, a 2 cm flank incision above the left kidney was performed and the renal pelvis and vascular bundle were exposed. […]
Just prior to clamping, EX-2 (50 or 500 μg/kg), ketorolac (KETO, 1 mg/kg), or vehicle was administered intravenously (iv) After 1 hr of clamping (ischemia), the clamp was gently removed with care taken to avoid damaging either the renal artery or nerves. […] After 60 min of reperfusion, glomerular filtration rate (GFR), renal plasma flow (RPF) and renal vascular resistance (RVR) were assessed in two 30 min collection periods. […] Contralateral renal function was utilized to determine the stability of the rat's renal function during the measured period.

[3] = system: inducible nitric oxide synthase (INOS); assay: Inducible nitric oxide synthase induction in rat aorta smooth muscle cells (cGMP RIA); format: cell-based; conditions: RASMC; 0.1 or 1 μM EX-2 before LPS, IL-1β or TNF-α (not specified which)
Experimental: A. Inducible Nitric Oxide Synthase (INOS): Rat aorta smooth muscle cells (RASMC) were isolated from male rats (325-350 g) using the previously published procedures of Gelsterfer et al., Circ. Res. 62:749-756 (1988), which is incorporated herein by reference. Cells were positively identified as smooth muscle cells by indirect immunofluorescent staining for anti-α-actin, using a mouse anti-α-actin antibody and anti-mouse IgG FITC conjugate. Cells were grown in T-75 tissue culture flasks (Corning Delbelco's Glass, Inc.; Corning, N.Y.) in 50% F12 and 50% Delbelco's Modified Eagle Medium (DMEM) supplemented with 10% bovine serum, 0.2 g/l L-glutamine, penicillin (100 U/ml) and streptomycin (0.1 mg/ml).
Cells between passages 1-5 were pretreated with one of the following: vehicle, LPS (1 μg/ml), IL-1β (10 U/ml), or TNF-α (100 U/ml) for 6 hr. […] Accumulation of cGMP was determined following exposure to 0.3 mM 3-isobutyl-1-methyl xanthine (IBMX) in the presence or absence of 1 mM L-arginine. […] The HCl extract was analyzed for cGMP by RIA and the NaOH-solubilized cell remnants were used for protein determination.
Male Sprague-Dawley rats were anesthetized with 55 mg/kg pentobarbital IP. […] RASMC were incubated with plasma from control or EX-2-treated animals and the ability of plasma components to inhibit the induction of INOS by LPS or IL-1β was determined as above. […]

[4] = system: Sprague-Dawley rats; assay: Streptozotocin-induced diabetes, plasma glucose; format: in vivo; conditions: STZ 65 mg/kg iv; EX-2 150 μg/kg every 8 hr for 72 hr
Experimental: B. Induced Diabetes: Male Sprague-Dawley rats were given 65 mg/kg of streptozotocin (STZ) intravenously through the tall vein. Rats were divided into two groups. The first group was administered EX-2, 150 μg/kg every 8 hr for 72 hr and the second group was a control. Blood samples were withdrawn under ether anesthesia every 8 hr for the first 72 hr, then every 12 hr or 24 hr until the end of the observation period. Plasma samples were assayed for glucose using a glucose assay kit (Trinder, Sigma Chemical Co.). As shown in Table VI below EX-2 effect a 72% reduction in blood glucose levels.

Ac-Nle-Gln-His-(D)Phe-Arg-(D)Trp-Gly-NH2 [EX-2]
Reduction in arachidonic acid-induced Ear Swelling [1]: 72%
GFR (glomerular filtration rate) ([2]; 1 hr clamp, after 60 min reperfusion, I/R + PBS 0.2 ± 0.1): 0.5 ± 0.1 ml/mm
RPF (renal plasma flow) ([2]; I/R + PBS 0.8 ± 0.2): 2.3 ± 0.3 ml/mm
% Reduction of induced increase in cGMP (pmol/100 mg/5 min), INOS [3]: 60%
% Reduction of induced increase in Blood Glucose (mg/dl), STZ Diabetes [4]: 72%

Source: patent publication US5786332A, “Cytokine restraining agents and methods of use in pathologies and conditions associated with altered cytokine levels” (Trega Biosciences, Inc., priority 1995, dated 1998)
